Experimental data published in patent US20220214354A1, “MEANS AND METHODS FOR SINGLE MOLECULE PEPTIDE SEQUENCING” (VIB VZW, priority 2019, published 2022).
“Also recorded” adds a separate entry of the source.

How the values were obtained:
[1] = NMR titration repeated with acetylated peptide; format: binding; details: same conditions as for NH2-Ala-Ala-Phe-amide; N-terminus acetylated
Method: The concept is based on the observation that 18-crown-6 ether derivatives can associate with protonated amines such as amino groups present at the N-termini of peptides or proteins (Yeh et al 2009 J Am Soc Mass Spectrom 20:385-393). To determine the exchange rate of the interaction between N-termini of polypeptides and 18-crown-6 ethers, an NMR study was performed. A model peptide (NH2-Ala-Ala-Phe-amide) was used in combination with the 18-crown-6 analogue triaza-trioxo-crown ether (TTC-ether; FIG. 3). The model peptide was designed with an N-terminal Ala to easily determine the shift of the N-terminal Ala methyl group upon binding to the TTC-ether. Solutions of the peptide were prepared in D2O/D-acetonitrile (3 ml/1 ml) with 10 mM D-acetic acid. A concentration of 100 μM peptide was maintained and mixed with varying concentrations of the TTC-ether. […]
A 2D-TOCSY (Total Correlation Spectroscopy) spectrum allows the identification of the position of the two methyl groups of both Ala residues around 1.25 ppm and 1.43 ppm. […] In order to retrieve information about the binding of the crown ether with the peptide, a titration was performed with different concentrations of the TTC-ether after which the shifts for the Ala methyl groups was measured at high resolution. Indeed, Ala-methyl shifts were observed when different TTC-ether/peptide ratios are measured (FIG. 4A). […]

[2] = test system: peptide array [AA1][AA2]GGNNGG; experiment: Crown ether binding on PEPperPRINT peptide array (fluorescence intensity); details: crown ether 0.1 μg/μl in 0.1% triethanolamine in 50% ACN
Method: To study the binding of crown ethers to different peptides, a peptide array is used (PEPperPRINT array), containing an array of 400 peptides comprising peptides with all amino acid combinations at the first and second N-terminal position ([AA1][AA2]GGNNGG; four replicates of each peptide). After applying a fluorescently labeled crown ether (Cy5.5-dibenzo-18-crown-6), the relative affinity for all peptide substrates is determined by the fluorescence intensity on each peptide spot. The crown ether was applied on the peptide array at a concentration of 0.1 μg/μl in 0.1% triethanolamine in 50% ACN. After binding the array was washed two times for 10 sec using the same buffer. Finally, the fluorescence intensity was measured using a LI-COR Odyssey Imaging system. […] The large hydrophobic side chains of the second amino acid likely interact with the hydrophobic regions of the crown ether (crown ether benzene rings and/or cy5.5 fluorophore).

Row | Substance | interaction with TTC-ether (NMR shifts) [1] | relative binding (fluorescence intensity), variable second amino acid ([2]; peptides with N-terminal glycine) | relative binding (fluorescence intensity), variable N-terminal amino acid ([2]; peptides with leucine at the second position)
1 | Acetyl-Ala-Ala-Phe-amide | did not measure any noticeable interaction |  | 
2 | Cy5.5-dibenzo-18-crown-6 |  | strongest on the peptides GFGGNNGG, GLGGNNGG, GYGGNNGG, GIGGNNGG, GKGGNNGG and GWGGNNGG | strongest on N-terminal glycine; also recorded: weakest on N-terminal proline
